Laboratory results from article PMC5128743, “Marine Fungi as Producers of Benzocoumarins, a New Class of Inhibitors of Glycogen-Synthase-Kinase 3β” (Marine Drugs, 2016).
Where two headings read alike, the source gives them in different places.

Tests used:
[1] = molecular target: T1, GSK-3β (N-terminal His6-tagged recombinant human GSK3β with an H350L mutation) (Homo sapiens, UniProt P49841); test: GSK-3β luminescent (Kinase-Glo) inhibition assay; assay type: biochemical
T1 construct: His6 (N); purchased EMD Millipore, Billerica, MA, USA
T1 sequence (P49841 whole entry, stated change not applied): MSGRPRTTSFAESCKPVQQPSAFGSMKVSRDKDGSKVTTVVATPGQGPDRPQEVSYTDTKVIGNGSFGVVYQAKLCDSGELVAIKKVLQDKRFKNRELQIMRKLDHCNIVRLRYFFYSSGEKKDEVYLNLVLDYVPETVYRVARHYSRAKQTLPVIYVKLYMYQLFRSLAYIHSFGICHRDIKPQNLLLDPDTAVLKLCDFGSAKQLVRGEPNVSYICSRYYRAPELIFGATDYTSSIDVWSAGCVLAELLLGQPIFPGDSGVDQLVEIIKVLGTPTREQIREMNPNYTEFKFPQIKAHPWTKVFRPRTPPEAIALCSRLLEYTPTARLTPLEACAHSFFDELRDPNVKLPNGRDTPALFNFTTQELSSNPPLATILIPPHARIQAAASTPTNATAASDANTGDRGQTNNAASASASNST
Experimental: (§1) The assay is based on the phosphorylation of a peptide by the enzyme with ATP as phosphate donor. ATP, luciferin, and oxygen react to oxyluciferin, which is measured as a luminescence signal. The more the enzyme is inhibited, the stronger the luminescence signals are because of high ATP levels. 20 μL substrate solution (2 μM ATP, 40 μM peptide HSSPHQ-pSer-EDEEE (BIOSYNTAN, Berlin, Germany)) and 10 μL enzyme solution (12 mU GSK-3β (N-terminal His6-tagged recombinant human GSK3β with an H350L mutation, EMD Millipore, Billerica, MA, USA)) were incubated for 60 min at 25 °C. Then 40 μL Kinase-Glo reagent (Kinase-Glo Luminescent Assay Kit, Promega, Darmstadt, Germany) was added. After centrifugation and incubation for 10 min at 25 °C, the luminescence was measured. […] The antimicrobial activities of compounds 1, 2, and 3 against the bacterium Bacillus subtilis (DSM 347) and the human pathogenic yeast Candida albicans (DSM 1386) were determined according to Ohlendorf et al.. The determination of inhibitory activities against Xanthomonas campestris, Septoria tritici, and Propionibacterium acnes, as well as the cytotoxic activity against the cell line […] was carried out as described by Schneemann et al..

[2] = system: Staphylococcus lentus; test: Growth inhibition of Staphylococcus lentus; assay type: cell-based; conditions: Mammaliicoccus lentus; test concentration of 100 μM; read-out: inhibition of growth of S. lentus
[3] = system: Bacillus subtilis (DSM 347); test: Growth inhibition of Bacillus subtilis; assay type: cell-based
Experimental: as §1

[4] = system: HMGCoA (3-hydroxy-3-methylglutaryl coenzyme A reductase); design: method as in PMID 1880066; conditions: cited from earlier work
[5] = system: HepG2; test: Cytotoxic activity against cancer cell line HepG2; conditions: concentration not given
Experimental: as §1

[6] = luminescent assay, 2 μM ATP substrate solution, 60 min at 25 °C
[7] = DSM347, read-out: inhibition of growth of B. subtilis

| Structure (SMILES) | IC50 of GSK-3β inhibition [1, 6] | IC50 ([1]; luminescent assay, 2 μM ATP substrate solution, 60 min at 25 °C, read-out: IC50 of GSK-3β inhibition) [nM] | inhibition at 100 µM [2] [%] | inhibition at 100 µM ([3]; DSM347, test concentration of 100 μM, read-out: inhibition of growth of B. subtilis) [%] | HMGCoA reductase inhibiting activity [4] | inhibition (cytotoxic effect) of cancer cell line HepG2 [5] | IC50 [1] [nM] | inhibition at 100 µM [3, 7] [%] |
| --- | --- | --- | --- | --- | --- | --- | --- | --- |
| Cc1cc2cc(O)cc(O)c2c2oc(=O)cc(O)c12 [Compound 1, pannorin] | sub-μM | 350 ± 40 | 88 | 54 | inhibiting activity | lower than 35% |  |  |
| Cc1cc(O)cc2oc(=O)c3c(O)cc(O)cc3c12 [Compound 2, alternariol] | sub-μM |  | 66 |  |  | lower than 35% | 130 ± 40 | 79 |
| COc1cc(O)c2c(=O)oc3cc(O)cc(C)c3c2c1 [Compound 3, alternariol-9-methylether] | sub-μM |  | 25 |  |  | lower than 35% | 200 ± 20 | 82 |
